{"source": "paper PMC11413854", "about": "“Reversible Control of Native GluN2B-Containing NMDA Receptors with Visible Light” (ACS Chemical Neuroscience, 2024)", "key": {"GluA2 AMPA receptors": {"molecular_target": "T1, GluA2 AMPA receptors (Rattus norvegicus, UniProt P19491)", "T1 construct": "expressed in transfected cells; host or cells: Xenopus laevis oocytes (mRNA injection)", "T1 sequence (P19491 22-883 isoform P19491-2 limits assumed)": "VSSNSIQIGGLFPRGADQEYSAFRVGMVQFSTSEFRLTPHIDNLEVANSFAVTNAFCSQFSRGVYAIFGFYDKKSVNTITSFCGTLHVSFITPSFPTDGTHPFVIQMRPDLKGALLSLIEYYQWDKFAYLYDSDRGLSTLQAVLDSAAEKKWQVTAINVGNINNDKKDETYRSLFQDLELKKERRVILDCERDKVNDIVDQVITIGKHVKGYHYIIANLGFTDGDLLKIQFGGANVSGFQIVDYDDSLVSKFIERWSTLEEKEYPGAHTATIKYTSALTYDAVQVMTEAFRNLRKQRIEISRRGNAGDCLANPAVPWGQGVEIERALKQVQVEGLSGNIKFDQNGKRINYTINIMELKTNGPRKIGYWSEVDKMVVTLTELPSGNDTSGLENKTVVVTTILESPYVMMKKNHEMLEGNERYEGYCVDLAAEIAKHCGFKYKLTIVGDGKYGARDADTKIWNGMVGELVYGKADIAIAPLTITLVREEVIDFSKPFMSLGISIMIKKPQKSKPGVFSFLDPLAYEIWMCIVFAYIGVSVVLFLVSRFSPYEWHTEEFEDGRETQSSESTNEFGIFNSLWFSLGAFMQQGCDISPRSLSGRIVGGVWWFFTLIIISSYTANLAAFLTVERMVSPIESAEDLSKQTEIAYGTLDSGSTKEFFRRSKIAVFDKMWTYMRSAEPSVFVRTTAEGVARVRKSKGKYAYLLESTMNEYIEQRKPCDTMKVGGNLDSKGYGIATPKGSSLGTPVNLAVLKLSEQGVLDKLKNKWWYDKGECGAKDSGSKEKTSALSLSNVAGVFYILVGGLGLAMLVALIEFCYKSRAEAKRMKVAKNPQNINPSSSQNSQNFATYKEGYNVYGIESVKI", "assay": "TEVC on Xenopus oocytes, GluA2 AMPA receptors", "assay_type": "cell-based", "design": "Inhibition, individual values: scale not given here", "conditions": "for Inhibition, individual values: GluA2, single cells", "description": "(§1) We used cDNA coding for rat GluN1–1a (named GluN1 herein) (GenBank: U08261.1), rat GluN2A (GenBank: D13211.1), mouse GluN2B (GenBank: D10651.2), rat GluA1 flop (GenBank: M36418.2), and rat Myc-GluA2(Q)-flip (GenBank: AF164344.1) cloned into pcDNA3-based expression plasmids. GluK2 (GenBank: Z11548.1) corresponds to the fully RNA-edited version.[80] The GluN2B-ΔNTD construct is from ref[45] and GluN2B–N615K is from ref[81]. Single mutants GluN2B-Q110G and GluN1-L135H were from ref[19]. The GluA2 cDNA contains a Myc tag ([…]) fused between the signal peptide and the N-terminus sequences, and the GluA2 subunit is […] for its Q/R/N site (GluA2(Q)) to allow permeation of homomeric GluA2 receptors.[2] cDNAs coding for rat GluN2C (GenBank: M91563.1) and GluN2D subunits (GenBank: L31611.1) were in prK5 plasmids.\nThe expression of recombinant GluA1, GluA2(Q), and GluK2 receptors was obtained by oocyte injection of 50 nL of mRNAs (at 1 μg/μL). mRNAs were generated using the T7 (GluA1 and GluA2) and T3 (GluK2) mMessage mMachine transcription kits (Invitrogen) after cDNA linearization with the SacII restriction enzyme. The injected oocytes were stored in the same conditions as for NMDARs and used 72–96 h postinjection.\nTEVC recordings were performed 1–3 days following injection. TEVC recordings were performed using an Oocyte Clamp amplifier OC-725 (Warner Instruments) and computer-controlled via a 1440A Digidata (Molecular Devices). Currents were sampled at 100 Hz and low-pass-filtered at 20 Hz using an 8-pole Bessel filter (900 Series, Frequency Devices Inc.). Data were collected with Clampfit 10.3. During the recording, the cells were continuously perfused with external recording Ringer solution at pH 7.3 (in mM: 100 NaCl, 0.3 BaCl2, 5 HEPES, and 2.5 KCl, pH adjustment to 7.3 by the addition of NaOH). The NMDA currents were induced by simultaneous application of L-glutamate and glycine (agonist solution) at saturating concentration (100 μM each), and DTPA (10 μM) to prevent receptor inhibition by ambient zinc (∼20 nM).[83] A control solution (100 μM glycine and 10 μM DTPA in Ringer pH 7.3) was used for washout of drug and test solutions. AMPA and kainate receptor currents were induced in the same conditions as NMDA currents (100 μM glutamate and glycine + 10 μM DTPA). Oocytes expressing GluK2 kainate receptors were treated with concanavalin A ([…], equivalent to 1.1 mg/mL) during 10 min before recording to decrease receptor desensitization. Unless notified, recordings were performed at a holding potential of −60 mV. All experiments were performed at room temperature. […]"}, "GluN1/GluN2D": {"molecular_target": "T2, GluN1/GluN2D (Rattus norvegicus, UniProt P35439+Q62645)", "T2 construct": "expressed in transfected cells; host or cells: Xenopus laevis oocytes (nuclear cDNA injection)", "T2 sequence (Q62645 28-1323, other chains not shown)": "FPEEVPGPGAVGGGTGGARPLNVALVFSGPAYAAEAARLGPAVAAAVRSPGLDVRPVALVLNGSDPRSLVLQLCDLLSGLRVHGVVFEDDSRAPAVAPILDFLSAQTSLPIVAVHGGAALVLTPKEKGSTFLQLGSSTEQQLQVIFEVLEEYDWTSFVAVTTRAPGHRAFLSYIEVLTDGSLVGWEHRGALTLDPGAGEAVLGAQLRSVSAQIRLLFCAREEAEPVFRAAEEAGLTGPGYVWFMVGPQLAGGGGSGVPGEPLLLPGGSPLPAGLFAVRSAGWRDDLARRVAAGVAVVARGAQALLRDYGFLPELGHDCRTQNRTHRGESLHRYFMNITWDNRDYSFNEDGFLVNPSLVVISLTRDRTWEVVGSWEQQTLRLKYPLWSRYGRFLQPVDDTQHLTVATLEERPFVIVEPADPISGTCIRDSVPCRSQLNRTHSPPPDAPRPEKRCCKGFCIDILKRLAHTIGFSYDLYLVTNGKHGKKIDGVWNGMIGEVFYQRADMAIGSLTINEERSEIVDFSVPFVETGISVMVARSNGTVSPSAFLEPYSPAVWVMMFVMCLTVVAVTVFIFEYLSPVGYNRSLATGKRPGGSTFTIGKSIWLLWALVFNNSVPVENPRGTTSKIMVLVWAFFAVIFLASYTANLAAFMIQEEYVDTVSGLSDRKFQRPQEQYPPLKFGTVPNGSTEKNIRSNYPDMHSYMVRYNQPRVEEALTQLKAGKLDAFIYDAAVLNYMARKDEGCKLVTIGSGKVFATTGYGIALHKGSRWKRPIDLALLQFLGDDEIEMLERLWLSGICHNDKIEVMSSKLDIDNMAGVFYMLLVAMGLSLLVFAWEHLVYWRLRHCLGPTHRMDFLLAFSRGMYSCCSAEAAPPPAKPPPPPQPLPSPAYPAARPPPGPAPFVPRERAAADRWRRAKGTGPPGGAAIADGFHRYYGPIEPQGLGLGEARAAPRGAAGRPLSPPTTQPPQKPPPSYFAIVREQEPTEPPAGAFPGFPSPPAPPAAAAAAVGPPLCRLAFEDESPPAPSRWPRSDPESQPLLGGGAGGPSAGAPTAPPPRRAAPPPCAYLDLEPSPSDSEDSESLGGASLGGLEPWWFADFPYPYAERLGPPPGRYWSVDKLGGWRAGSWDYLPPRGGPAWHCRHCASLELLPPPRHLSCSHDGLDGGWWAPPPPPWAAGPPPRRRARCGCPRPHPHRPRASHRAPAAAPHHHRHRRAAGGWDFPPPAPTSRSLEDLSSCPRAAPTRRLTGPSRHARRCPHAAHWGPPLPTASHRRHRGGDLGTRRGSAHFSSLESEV", "assay": "TEVC on Xenopus oocytes, GluN1/GluN2D diheteromers", "assay_type": "cell-based", "conditions": "1 µM trans-OptoNAM-3 (dark); listed as trans-OptoNAM-3", "description": "NMDARs exist as multiple subtypes in the brain that are formed by the combination of two GluN1 and either two identical (diheteromers) or different (triheteromers) GluN2 (GluN2A-D) subunits.[1] We assessed the selectivity of trans-OptoNAM-3 (dark PSS) for the other NMDAR subtypes.\nas §1\nExpression of recombinant NMDA receptors was obtained by oocyte nuclear coinjection of 37 nL of a mixture of cDNAs (at 30 ng/μL) coding for GluN1–1a and various GluN2 subunits (ratio 1:1). The protocol in ref[43] was followed for the expression of GluN1/GluN2A/GluN2B triheteromers. […]"}}, "note": "Several values for one entry are separate records, joined by “and”; a condition that tells them apart may be missing. Identical values can stand only once. Like-named read-outs stand apart in the source and are kept apart here.", "data": [{"molecule": "c1ccc(/N=N/c2ccc(CCNc3ccncc3)cc2)cc1", "note": "[OptoNAM-3, (E)-N-(4-(Phenyldiazenyl)phenethyl)pyridin-4-amine]", "values": [{"measurement": "inhibition at 10 µM", "setting": "GluA2 AMPA receptors; 10 µM OptoNAM-3 365 nm PSS, construct GluA2, read-out: Inhibition (%)", "value": -4.9, "unit": "%"}, {"measurement": "Inhibition, individual values", "setting": "GluA2 AMPA receptors; 10 µM OptoNAM-3 dark PSS (trans) as headed, second block", "value": "-0.00171 and -0.04016 and -0.1082 and -0.02166 and -0.07608 and -0.04674"}, {"measurement": "Inhibition, individual values", "setting": "GluA2 AMPA receptors; 10 µM OptoNAM-3 dark PSS (trans), first block", "value": "-0.007761 and -0.14 and -0.08034 and -0.01769 and -0.2089 and 0.009857"}, {"measurement": "inhibition at 10 µM", "setting": "GluA2 AMPA receptors; 10 µM OptoNAM-3 dark PSS (trans), construct GluA2, read-out: Inhibition (%)", "value": -7.4, "unit": "%"}, {"measurement": "inhibition of GluA2 currents", "setting": "GluA2 AMPA receptors; 10 µM, dark PSS", "value": "no effect"}, {"measurement": "inhibition at 10 µM", "setting": "GluA2 AMPA receptors; 10 µM, dark PSS, read-out: inhibition of GluA2 currents", "value": "-7.4 ± 3.5", "unit": "%"}, {"measurement": "inhibition of GluN1/GluN2D", "setting": "GluN1/GluN2D", "value": "2.2% ± 0.2%"}]}]}
